Measured values from patent publication US7786137B2, “Bicyclic derivatives as modulators of ion channels” (Vertex Pharmaceuticals Incorporated, priority 2005, dated 2010).

Molecular target: NaV1.3 (Homo sapiens, UniProt Q9NY46)
Experiment: VIPR optical membrane potential assay, NaV1.3 inhibition
Type: cell-based
Set-up: expressed in transfected cells; host or cells: HEK293
Conditions: activity against NaV 1.3 channel
Procedure: Antagonist properties of test compounds were assessed as follows. Cells expressing the NaV of interest were placed into microtiter plates. After an incubation period, the cells were stained with fluorescent dyes sensitive to the transmembrane potential. The test compounds were added to the microtiter plate. The cells were stimulated with either a chemical or electrical means to evoke a NaV dependent membrane potential change from unblocked channels, which was detected and measured with trans-membrane potential-sensitive dyes. Antagonists were detected as a decreased membrane potential response to the stimulus.
The following is an example of how NaV1.3 inhibition activity is measured using the optical membrane potential method#2. Other subtypes are performed in an analogous mode in a cell line expressing the NaV of interest.
HEK293 cells stably expressing NaV1.3 are plated into 96-well microtiter plates. After an appropriate incubation period, the cells are stained with the voltage sensitive dyes CC2-DMPE/DiSBAC2(3) as follows.
2× CC2-DMPE=20 μM CC2-DMPE: 10 mM CC2-DMPE is vortexed with an equivalent volume of 10% pluronic, followed by vortexing in required amount of HBSS containing 10 mM HEPES. Each cell plate will require 5 mL of 2× CC2-DMPE. 50 μL of 2× CC2-DMPE is to wells containing washed cells, resulting in a 10 μM final staining concentration. The cells are stained for 30 minutes in the dark at RT.
2× DISBAC2(3) with ABSC1=6 μM DISBAC2(3) and 1 mM ABSC1: The required amount of 10 mM DISBAC2(3) is added to a 50 ml conical tube and mixed with 1 μL 10% pluronic for each mL of solution to be made and vortexed together. Then HBSS/HEPES is added to make up 2× solution. Finally, the ABSC1 is added.
The 2× DiSBAC2(3) solution can be used to solvate compound plates. Note that compound plates are made at 2× drug concentration. Wash stained plate again, leaving residual volume of 50 μL. Add 50 μL/well of the 2× DiSBAC2(3) w/ABSC1. Stain for 30 minutes in the dark at RT.
The instrument comprises a microtiter plate handler, an optical system for exciting the coumarin dye while simultaneously recording the coumarin and oxonol emissions, a waveform generator, a current- or voltage-controlled amplifier, and a device for inserting electrodes in well. Under integrated computer control, this instrument passes user-programmed electrical stimulus protocols to cells within the wells of the microfilter plate.
Insert or use electrodes into each well to be assayed.
Use the current-controlled amplifier to deliver stimulation wave pulses for 3 s. Two seconds of pre-stimulus recording are performed to obtain the un-stimulated intensities. Five seconds of post-stimulation recording are performed to examine the relaxation to the resting state.
Data are analyzed and reported as normalized ratios of background-subtracted emission intensities measured in the 460 nm and 580 nm channels. Background intensities are then subtracted from each assay channel. Background intensities are obtained by measuring the emission intensities during the same time periods from identically treated assay wells in which there are no cells. The response as a function of time is then reported as the ratios obtained using the following formula: […]
The data is further reduced by calculating the initial (Ri) and final (Rf) ratios. These are the average ratio values during part or all of the pre-stimulation period, and during sample points during the stimulation period. The response to the stimulus ? =Rf/Ri is then calculated.
Control responses are obtained by performing assays in the presence of a compound with the desired properties (positive control), such as tetracaine, and in the absence of pharmacological agents (negative control). Responses to the negative (N) and positive (P) controls are calculated as above. The compound antagonist activity A is defined as:
[formula] where R is the ratio response of the test compound.

Chain of NaV1.3 (Q9NY46 whole entry): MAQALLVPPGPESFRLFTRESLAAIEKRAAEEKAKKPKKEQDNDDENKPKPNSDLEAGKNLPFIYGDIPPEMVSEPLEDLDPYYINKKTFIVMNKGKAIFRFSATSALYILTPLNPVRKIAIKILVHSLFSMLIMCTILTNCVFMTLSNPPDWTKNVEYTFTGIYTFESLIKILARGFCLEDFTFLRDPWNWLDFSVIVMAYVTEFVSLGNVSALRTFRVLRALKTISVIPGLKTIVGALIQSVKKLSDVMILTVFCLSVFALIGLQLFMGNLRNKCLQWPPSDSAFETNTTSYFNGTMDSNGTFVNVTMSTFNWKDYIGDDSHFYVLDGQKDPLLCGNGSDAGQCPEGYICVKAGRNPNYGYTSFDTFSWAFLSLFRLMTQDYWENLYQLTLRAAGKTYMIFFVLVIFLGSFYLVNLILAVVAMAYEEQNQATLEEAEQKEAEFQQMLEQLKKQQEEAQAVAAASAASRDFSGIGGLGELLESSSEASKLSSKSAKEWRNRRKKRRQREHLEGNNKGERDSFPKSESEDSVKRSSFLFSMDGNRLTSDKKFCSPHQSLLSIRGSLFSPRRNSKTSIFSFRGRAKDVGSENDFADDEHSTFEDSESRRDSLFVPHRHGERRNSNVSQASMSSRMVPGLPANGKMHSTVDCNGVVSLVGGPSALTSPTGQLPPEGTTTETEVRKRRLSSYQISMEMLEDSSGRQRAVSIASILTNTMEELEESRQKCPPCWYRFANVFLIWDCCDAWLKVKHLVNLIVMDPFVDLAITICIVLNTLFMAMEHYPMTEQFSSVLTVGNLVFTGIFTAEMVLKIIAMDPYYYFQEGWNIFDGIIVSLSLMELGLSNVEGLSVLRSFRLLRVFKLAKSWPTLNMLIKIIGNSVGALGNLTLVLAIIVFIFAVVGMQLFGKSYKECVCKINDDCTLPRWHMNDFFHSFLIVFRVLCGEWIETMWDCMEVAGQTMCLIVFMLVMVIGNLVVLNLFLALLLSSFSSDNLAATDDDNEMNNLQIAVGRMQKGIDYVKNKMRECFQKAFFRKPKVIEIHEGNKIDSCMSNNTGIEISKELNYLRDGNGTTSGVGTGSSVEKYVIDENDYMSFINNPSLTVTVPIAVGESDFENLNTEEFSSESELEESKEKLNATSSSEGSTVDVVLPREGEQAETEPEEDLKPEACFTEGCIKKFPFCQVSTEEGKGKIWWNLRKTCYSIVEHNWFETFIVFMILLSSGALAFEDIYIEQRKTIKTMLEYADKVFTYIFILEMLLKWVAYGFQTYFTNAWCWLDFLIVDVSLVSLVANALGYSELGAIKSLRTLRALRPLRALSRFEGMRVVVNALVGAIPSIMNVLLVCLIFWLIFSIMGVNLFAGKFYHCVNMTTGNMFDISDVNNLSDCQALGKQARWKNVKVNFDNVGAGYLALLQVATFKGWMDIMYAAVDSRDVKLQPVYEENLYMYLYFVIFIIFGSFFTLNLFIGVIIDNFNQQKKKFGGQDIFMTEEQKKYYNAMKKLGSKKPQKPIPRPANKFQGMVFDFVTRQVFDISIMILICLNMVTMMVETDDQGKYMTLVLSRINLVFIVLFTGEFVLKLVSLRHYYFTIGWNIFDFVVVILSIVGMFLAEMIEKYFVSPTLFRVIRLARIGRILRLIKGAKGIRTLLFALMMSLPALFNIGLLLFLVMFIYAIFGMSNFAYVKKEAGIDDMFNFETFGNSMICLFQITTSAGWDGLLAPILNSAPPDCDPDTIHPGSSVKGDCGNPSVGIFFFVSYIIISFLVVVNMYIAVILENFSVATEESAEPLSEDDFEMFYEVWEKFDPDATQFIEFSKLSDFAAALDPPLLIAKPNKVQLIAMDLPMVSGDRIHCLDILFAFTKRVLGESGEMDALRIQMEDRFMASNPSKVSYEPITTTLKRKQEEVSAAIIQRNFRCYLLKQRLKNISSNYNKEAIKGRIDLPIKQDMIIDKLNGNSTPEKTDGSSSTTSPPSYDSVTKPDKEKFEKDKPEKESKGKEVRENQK

IC50 [µM] | SMILES
< 2 | O=C(CCc1ccccc1)N1CCc2cc(S(=O)(=O)Nc3nccs3)ccc21 [Compound 197]
2 to 5 | O=C(c1ccc(F)cc1)N1Cc2ccc(S(=O)(=O)Nc3nccs3)cc2C1 [Compound 3]
2 to 5 | O=C(CN1CCc2ccccc2C1)N1CCCc2cc(S(=O)(=O)Nc3nccs3)ccc21 [Compound 15]
> 5 | O=C(COc1ccc(Cl)cc1)N1CCc2ccc(S(=O)(=O)Nc3nccs3)cc2C1 [Compound 23]
< 2 | C[C@@H](C(=O)N1Cc2ccc(S(=O)(=O)Nc3ncns3)cc2C1)n1ccc2c(F)cccc21 [Compound 124]
2 to 5 | CC(Oc1ccccc1Cl)C(=O)n1ccc2cc(S(=O)(=O)Nc3nccs3)ccc21 (stereo not shown) [Compound 160]
< 2 | O=C(COc1ccnc2c(C(F)(F)F)cccc12)N1Cc2ccc(S(=O)(=O)Nc3ncns3)cc2C1 [Compound 122]
> 5 | O=C(c1cc(F)ccc1F)N1CCc2ccc(S(=O)(=O)Nc3nccs3)cc2C1 [Compound 74]
2 to 5 | Cc1ccc(CNCC(=O)N2CCc3cc(S(=O)(=O)Nc4nccs4)ccc32)cc1 [Compound 41]
2 to 5 | Cc1ccc(C(=O)N2CCc3cc(S(=O)(=O)Nc4nccs4)ccc32)cc1 [Compound 7]
< 2 | CC(C(=O)N1Cc2ccc(S(=O)(=O)Nc3nccs3)cc2C1)n1ccc2ccccc21 (stereo not shown) [Compound 17]
< 2 | O=C(CCCOc1ccc(Cl)c(Cl)c1)N1Cc2ccc(S(=O)(=O)Nc3ncns3)cc2C1 [Compound 32]
< 2 | O=C(COc1ccnc2c(C(F)(F)F)cccc12)N1CCc2ccc(S(=O)(=O)Nc3nccs3)cc2C1 [Compound 140]
< 2 | Cc1ccc(C(=O)N2CCc3cc(S(=O)(=O)Nc4ncns4)ccc32)cc1Cl [Compound 179]
> 5 | O=C(c1ccc(F)cc1)N1CCc2ccc(S(=O)(=O)Nc3nccs3)cc2C1 [Compound 119]
> 5 | O=C(CNCc1ccncc1)N1CCc2cc(S(=O)(=O)Nc3nccs3)ccc21 [Compound 171]
> 5 | O=C(c1ccccc1F)N1CCCc2cc(S(=O)(=O)Nc3nccs3)ccc21 [Compound 96]
> 5 | C[C@H](C(=O)N1Cc2ccc(S(=O)(=O)Nc3ccc(Cl)nn3)cc2C1)n1ccc2c(F)cccc21 [Compound 58]
< 2 | C[C@@H](C(=O)N1Cc2ccc(S(=O)(=O)Nc3ncns3)cc2C1)n1ccc2ccccc21 [Compound 164]
2 to 5 | CCc1nnc(NS(=O)(=O)c2ccc3c(c2)CN(C(=O)[C@@H](C)N2CCCc4cc(Cl)ccc42)C3)s1 [Compound 135]

IC50 [µM] | SMILES
> 5 | C[C@H](C(=O)N1Cc2ccc(S(=O)(=O)Nc3ccc(Cl)nn3)cc2C1)N1CCCc2cc(Cl)ccc21 [Compound 146]
2 to 5 | Cc1ccc2c(c1)CCCN2CC(=O)N1CCc2cc(S(=O)(=O)Nc3nccs3)ccc21 [Compound 64]
2 to 5 | O=C(c1cc(Cl)ccc1Cl)n1ccc2cc(S(=O)(=O)Nc3nccs3)ccc21 [Compound 162]
< 2 | Cc1cccc(OCC(=O)N2CCc3cc(S(=O)(=O)Nc4nccs4)ccc32)c1 [Compound 1]
> 5 | O=C(CN1CCC(F)(F)CC1)N1CCCc2cc(S(=O)(=O)Nc3nccs3)ccc21 [Compound 175]
< 2 | O=C(CNc1ccccc1F)N1CCc2cc(S(=O)(=O)Nc3nccs3)ccc21 [Compound 144]
2 to 5 | O=C(CN1CCCc2cc(Cl)ccc21)N1Cc2ccc(S(=O)(=O)Nc3ccncn3)cc2C1 [Compound 37]
< 2 | CC(Oc1ccccc1)C(=O)N1CCc2cc(S(=O)(=O)Nc3ncns3)ccc21 (stereo not shown) [Compound 125]
< 2 | O=C(c1ccc(C(F)(F)F)cc1)N1CCc2cc(S(=O)(=O)Nc3nccs3)ccc21 [Compound 166]
> 5 | COc1ccc(CC(=O)N2CCc3ccc(S(=O)(=O)Nc4nccs4)cc3C2)cc1 [Compound 168]
< 2 | O=C(CCn1ccc2cc(Cl)ccc21)N1CCc2ccc(S(=O)(=O)Nc3nccs3)cc2C1 [Compound 121]
< 2 | O=C(CN1CCCc2cc(Cl)ccc21)N1CCc2cc(S(=O)(=O)Nc3ncns3)ccc21 [Compound 205]
> 5 | Cc1nnc(NS(=O)(=O)c2ccc3c(c2)CN(C(=O)COc2ccnc4c(C(F)(F)F)cccc24)CC3)s1 [Compound 152]
> 5 | O=C(CN1CCCc2ccccc21)N1CCCc2cc(S(=O)(=O)Nc3nccs3)ccc21 [Compound 101]
< 2 | O=C(Cn1ccc2cccc(Cl)c21)N1Cc2ccc(S(=O)(=O)Nc3ccncn3)cc2C1 [Compound 56]
< 2 | O=C(COc1ccccc1Cl)N1CCc2ccc(S(=O)(=O)Nc3nccs3)cc2C1 [Compound 149]
2 to 5 | O=C(c1ccccc1Cl)n1ccc2cc(S(=O)(=O)Nc3nccs3)ccc21 [Compound 103]
< 2 | O=C(COc1ccc(OC(F)(F)F)cc1)N1Cc2ccc(S(=O)(=O)Nc3nccs3)cc2C1 [Compound 84]
< 2 | O=C(COc1ccc(F)c(Cl)c1)N1CCc2cc(S(=O)(=O)Nc3ncns3)ccc21 [Compound 13]
> 5 | CC1CCCN(CC(=O)N2CCc3cc(S(=O)(=O)Nc4nccs4)ccc32)C1 (stereo not shown) [Compound 75]

IC50 [µM] | SMILES
> 5 | COc1ccc(OC(=O)N2CCc3cc(S(=O)(=O)Nc4nccs4)ccc32)cc1 [Compound 80]
< 2 | Cc1ccc(OCC(=O)N2CCc3cc(S(=O)(=O)Nc4nccs4)ccc32)c(C)c1 [Compound 60]
2 to 5 | CCc1nnc(NS(=O)(=O)c2ccc3c(c2)CN(C(=O)[C@@H](C)n2ccc4c(F)cccc42)C3)s1 [Compound 105]
< 2 | Cc1cccc(C)c1OCC(=O)N1CCc2cc(S(=O)(=O)Nc3nccs3)ccc21 [Compound 138]
> 5 | O=C(c1ccc(F)cc1)N1CCCc2cc(S(=O)(=O)Nc3nccs3)ccc21 [Compound 114]
< 2 | O=C(COc1ccc(F)c(Cl)c1)N1Cc2ccc(S(=O)(=O)Nc3nccs3)cc2C1 [Compound 27]
< 2 | Cc1ccc(OCC(=O)N2CCc3ccc(S(=O)(=O)Nc4nccs4)cc3C2)c(C)c1 [Compound 16]
> 5 | COc1cccc(NCC(=O)N2CCc3cc(S(=O)(=O)Nc4nccs4)ccc32)c1 [Compound 165]
2 to 5 | COc1ccc(CC(=O)N2Cc3ccc(S(=O)(=O)Nc4nccs4)cc3C2)cc1 [Compound 193]
2 to 5 | COc1ccc(F)cc1C(=O)n1ccc2cc(S(=O)(=O)Nc3nccs3)ccc21 [Compound 110]
2 to 5 | O=C(COc1ccc(F)c(Cl)c1)N1CCCc2cc(S(=O)(=O)Nc3ncns3)ccc21 [Compound 36]
< 2 | O=C(COc1ccc(F)c(Cl)c1)N1Cc2ccc(S(=O)(=O)Nc3ncns3)cc2C1 [Compound 200]
< 2 | COc1ccc(CC(=O)N2CCc3cc(S(=O)(=O)Nc4nccs4)ccc32)cc1 [Compound 5]
> 5 | O=C(COc1ccc(Cl)c(Cl)c1)n1ccc2cc(S(=O)(=O)Nc3nccs3)ccc21 [Compound 19]
> 5 | Cc1ccnc(NS(=O)(=O)c2ccc3c(c2)CCN3C(=O)CCCOc2ccc(Cl)cc2Cl)n1 [Compound 208]
< 2 | CC(Oc1ccc(OC(F)(F)F)cc1)C(=O)N1Cc2ccc(S(=O)(=O)Nc3nccs3)cc2C1 (stereo not shown) [Compound 186]
< 2 | Cc1ccc(OCC(=O)N2CCc3cc(S(=O)(=O)Nc4nccs4)ccc32)cc1 [Compound 181]
< 2 | CC(C(=O)N1Cc2ccc(S(=O)(=O)Nc3ncns3)cc2C1)N1CCCc2cc(Cl)ccc21 (stereo not shown) [Compound 57]
< 2 | O=C(COc1ccccc1)N1Cc2ccc(S(=O)(=O)Nc3nccs3)cc2C1 [Compound 199]
> 5 | C[C@@H](C(=O)N1CCc2cc(S(=O)(=O)Nc3ncns3)ccc21)n1ccc2ccccc21 [Compound 130]

SMILES | IC50 [µM]
O=C(COc1ccc(F)cc1)N1CCc2cc(S(=O)(=O)Nc3nccs3)ccc21 [Compound 14] | < 2
